According to PubChem BioAssay AID1963863 (Molecular Pharmacology Branch, DTP, NCI, 2024):

Test system: 931267-113-T-J1-PDC KRAS spheroid with HUVEC/MSC, viability
Experiment: Anticancer human tumor 931267-113-T-J1-PDC patient-derived colon adenocarcinoma cell line growth inhibition [KRAS2]
Details: for IC50: curve of first compound; for viability, T/C: stronger effect = lower value
In short: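 Combination screen of spheroid viability in tumor-cell co-cultures with endothelial (HUVEC) and mesenchymal stem cell stroma. Each agent was tested in half-log dilutions, topping at clinical Cmax or at 10 microM without a known Cmax.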

[1] = second compound 0.0316 µM, first compound 0.0316 µM
[2] = second compound 0.0316 µM, first compound 0.1 µM
[3] = second compound 0.1 µM, first compound 0.0316 µM
[4] = second compound 0.1 µM, first compound 0.1 µM
[5] = second compound 0.316 µM, first compound 0.0316 µM
[6] = second compound 0.316 µM, first compound 0.1 µM
[7] = second compound 1 µM, first compound 0.0316 µM
[8] = second compound 1 µM, first compound 0.1 µM
[9] = second compound 3.16 µM, first compound 0.0316 µM
[10] = second compound 3.16 µM, first compound 0.1 µM
[11] = second compound 0.0316 µM, first compound 0.316 µM
[12] = second compound 0.0316 µM, first compound 1 µM
[13] = second compound 0.0316 µM, first compound 3.16 µM
[14] = second compound 0.0316 µM, first compound 10 µM
[15] = second compound 0.1 µM, first compound 0.316 µM
[16] = second compound 0.1 µM, first compound 1 µM
[17] = second compound 0.1 µM, first compound 3.16 µM
[18] = second compound 0.1 µM, first compound 10 µM
[19] = second compound 0.316 µM, first compound 0.316 µM
[20] = second compound 0.316 µM, first compound 1 µM
[21] = second compound 0.316 µM, first compound 3.16 µM
[22] = second compound 0.316 µM, first compound 10 µM
[23] = second compound 1 µM, first compound 0.316 µM
[24] = second compound 1 µM, first compound 1 µM
[25] = second compound 1 µM, first compound 3.16 µM
[26] = second compound 1 µM, first compound 10 µM
[27] = second compound 3.16 µM, first compound 0.316 µM
[28] = second compound 3.16 µM, first compound 1 µM
[29] = second compound 3.16 µM, first compound 3.16 µM
[30] = second compound 3.16 µM, first compound 10 µM
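Further: compound exposure lasted 7 days before the readout.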
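Wherever viability, T/C is given: 100% = DMSO vehicle control viability.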

CC(C)n1nc(-c2ccc3oc(N)nc3c2)c2c(N)ncnc21 + C=CC(=O)N1CCN(c2nc(OCC3CCCN3C)nc3c2CCN(c2cccc4cccc(C)c24)C3)CC1CC#N
IC50 (second compound 0.0316 µM): 7.3 nM
IC50 (second compound 0.1 µM): 6.23 nM
IC50 (second compound 0.316 µM): 7.32 nM
IC50 (second compound 1 µM): 5.74 nM
IC50 (second compound 3.16 µM): < 0.316 nM
viability, T/C (second compound 0.0316 µM, first compound 0.000316 µM): 91.9%
viability, T/C (second compound 0.0316 µM, first compound 0.001 µM): 89.1%
viability, T/C (second compound 0.0316 µM, first compound 0.00316 µM): 71.1%
viability, T/C (second compound 0.0316 µM, first compound 0.01 µM): 41.9%
viability, T/C [1]: 26.6%
viability, T/C [2]: 21.8%
viability, T/C (second compound 0.1 µM, first compound 0.000316 µM): 111%
viability, T/C (second compound 0.1 µM, first compound 0.001 µM): 91.8%
viability, T/C (second compound 0.1 µM, first compound 0.00316 µM): 65.2%
viability, T/C (second compound 0.1 µM, first compound 0.01 µM): 40.7%
viability, T/C [3]: 22.6%
viability, T/C [4]: 19.9%
viability, T/C (second compound 0.316 µM, first compound 0.000316 µM): 89.6%
viability, T/C (second compound 0.316 µM, first compound 0.001 µM): 95.9%
viability, T/C (second compound 0.316 µM, first compound 0.00316 µM): 67.1%
viability, T/C (second compound 0.316 µM, first compound 0.01 µM): 44.6%
viability, T/C [5]: 22.7%
viability, T/C [6]: 18.3%
viability, T/C (second compound 1 µM, first compound 0.000316 µM): 106%
viability, T/C (second compound 1 µM, first compound 0.001 µM): 78.2%
viability, T/C (second compound 1 µM, first compound 0.00316 µM): 62.9%
viability, T/C (second compound 1 µM, first compound 0.01 µM): 41.6%
viability, T/C [7]: 24.8%
viability, T/C [8]: 21.6%
viability, T/C (second compound 3.16 µM, first compound 0.000316 µM): 18.4%
viability, T/C (second compound 3.16 µM, first compound 0.001 µM): 0.63%
viability, T/C (second compound 3.16 µM, first compound 0.00316 µM): 13.2%
viability, T/C (second compound 3.16 µM, first compound 0.01 µM): 0.24%
viability, T/C [9]: 0.27%
viability, T/C [10]: 1.47%

CC1(C)CCC(CN2CCN(c3ccc(C(=O)NS(=O)(=O)c4ccc(NCC5CCOCC5)c([N+](=O)[O-])c4)c(Oc4cnc5[nH]ccc5c4)c3)CC2)=C(c2ccc(Cl)cc2)C1 + C=CC(=O)N1CCN(c2nc(OCC3CCCN3C)nc3c2CCN(c2cccc4cccc(C)c24)C3)CC1CC#N
IC50 (second compound 0.0316 µM): 1960 nM
IC50 (second compound 0.1 µM): 2360 nM
IC50 (second compound 0.316 µM): 1900 nM
IC50 (second compound 1 µM): 1550 nM
IC50 (second compound 3.16 µM): < 31.6 nM
viability, T/C [1]: 107%
viability, T/C [2]: 93.6%
viability, T/C [11]: 102%
viability, T/C [12]: 83%
viability, T/C [13]: 26.2%
viability, T/C [14]: 0.37%
viability, T/C [3]: 110%
viability, T/C [4]: 120%
viability, T/C [15]: 97.5%
viability, T/C [16]: 106%
viability, T/C [17]: 31%
viability, T/C [18]: 0.82%
viability, T/C [5]: 114%
viability, T/C [6]: 94.8%
viability, T/C [19]: 89.3%
viability, T/C [20]: 94.6%
viability, T/C [21]: 14.8%
viability, T/C [22]: 0.28%
viability, T/C [7]: 102%
viability, T/C [8]: 84.3%
viability, T/C [23]: 94.5%
viability, T/C [24]: 78%
viability, T/C [25]: 4.65%
viability, T/C [26]: 0.18%
viability, T/C [9]: 0.38%
viability, T/C [10]: 0.51%
viability, T/C [27]: 0.75%
viability, T/C [28]: 0.2%
viability, T/C [29]: 0.34%
viability, T/C [30]: 0.26%

COc1cc(Nc2ncc3c(n2)-c2ccc(Cl)cc2C(c2c(F)cccc2OC)=NC3)ccc1C(=O)O + C=CC(=O)N1CCN(c2nc(OCC3CCCN3C)nc3c2CCN(c2cccc4cccc(C)c24)C3)CC1CC#N
IC50 (second compound 0.0316 µM): > 10000 nM
IC50 (second compound 0.1 µM): > 10000 nM
IC50 (second compound 0.316 µM): > 10000 nM
IC50 (second compound 1 µM): 5040 nM
IC50 (second compound 3.16 µM): < 31.6 nM
viability, T/C [1]: 87.9%
viability, T/C [2]: 89.5%
viability, T/C [11]: 93.8%
viability, T/C [12]: 75.6%
viability, T/C [13]: 95.8%
viability, T/C [14]: 68.1%
viability, T/C [3]: 106%
viability, T/C [4]: 89.7%
viability, T/C [15]: 85.6%
viability, T/C [16]: 88%
viability, T/C [17]: 68.6%
viability, T/C [18]: 58.3%
viability, T/C [5]: 93.5%
viability, T/C [6]: 91.8%
viability, T/C [19]: 91.7%
viability, T/C [20]: 55.6%
viability, T/C [21]: 70%
viability, T/C [22]: 63%
viability, T/C [7]: 92.6%
viability, T/C [8]: 60.3%
viability, T/C [23]: 66.4%
viability, T/C [24]: 64.1%
viability, T/C [25]: 66%
viability, T/C [26]: 31.8%
viability, T/C [9]: 0.22%
viability, T/C [10]: 0.29%
viability, T/C [27]: 0.25%
viability, T/C [28]: 0.3%
viability, T/C [29]: 0.17%
viability, T/C [30]: 0.23%

COc1cc2nccc(Oc3ccc(NC(=O)C4(C(=O)Nc5ccc(F)cc5)CC4)cc3)c2cc1OC + C=CC(=O)N1CCN(c2nc(OCC3CCCN3C)nc3c2CCN(c2cccc4cccc(C)c24)C3)CC1CC#N
IC50 (second compound 0.0316 µM): > 10000 nM
IC50 (second compound 0.1 µM): > 10000 nM
IC50 (second compound 0.316 µM): > 10000 nM
IC50 (second compound 1 µM): 2470 nM
IC50 (second compound 3.16 µM): < 31.6 nM
viability, T/C [1]: 107%
viability, T/C [2]: 98.3%
viability, T/C [11]: 95.2%
viability, T/C [12]: 98.7%
viability, T/C [13]: 64.7%
viability, T/C [14]: 59.5%
viability, T/C [3]: 107%
viability, T/C [4]: 97.9%
viability, T/C [15]: 106%
viability, T/C [16]: 104%
viability, T/C [17]: 66.6%
viability, T/C [18]: 50.9%
viability, T/C [5]: 108%
viability, T/C [6]: 119%
viability, T/C [19]: 108%
viability, T/C [20]: 110%
viability, T/C [21]: 71.9%
viability, T/C [22]: 51.8%
viability, T/C [7]: 92.3%
viability, T/C [8]: 101%
viability, T/C [23]: 92.8%
viability, T/C [24]: 104%
viability, T/C [25]: 37%
viability, T/C [26]: 15.6%
viability, T/C [9]: 16.2%
viability, T/C [10]: 13.8%
viability, T/C [27]: 0.57%
viability, T/C [28]: 0.23%
viability, T/C [29]: 2.35%
viability, T/C [30]: 0.23%
